Source: patent publication US10730874B2 (Shire Human Genetic Therapies, Inc., priority 2018, dated 2020)
pEC50: −log10 of the molar value.

biological target: human activated kallikrein enzyme (plasma kallikrein) (Homo sapiens (Human), UniProt P03952); experiment: Inhibition of human activated plasma kallikrein, fluorogenic peptide substrate assay, 500 pM enzyme format; type: biochemical; conditions: 500 pM activated kallikrein enzyme, 300 uM Pro-Phe-Arg-7-amido-4-methylcoumarin substrate, 30 min preincubation, 10 min at RT; read-out: Primary Dose Response Assay: Average EC50
Sequence (P03952 391-638): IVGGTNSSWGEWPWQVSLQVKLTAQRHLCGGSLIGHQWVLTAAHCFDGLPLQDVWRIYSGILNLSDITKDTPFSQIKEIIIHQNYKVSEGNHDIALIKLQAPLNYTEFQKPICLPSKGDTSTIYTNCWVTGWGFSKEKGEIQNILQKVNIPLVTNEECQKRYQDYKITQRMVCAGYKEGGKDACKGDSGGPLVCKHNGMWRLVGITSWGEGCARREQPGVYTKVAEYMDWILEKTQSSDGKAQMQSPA
Sequence (P03952 20-390 partner): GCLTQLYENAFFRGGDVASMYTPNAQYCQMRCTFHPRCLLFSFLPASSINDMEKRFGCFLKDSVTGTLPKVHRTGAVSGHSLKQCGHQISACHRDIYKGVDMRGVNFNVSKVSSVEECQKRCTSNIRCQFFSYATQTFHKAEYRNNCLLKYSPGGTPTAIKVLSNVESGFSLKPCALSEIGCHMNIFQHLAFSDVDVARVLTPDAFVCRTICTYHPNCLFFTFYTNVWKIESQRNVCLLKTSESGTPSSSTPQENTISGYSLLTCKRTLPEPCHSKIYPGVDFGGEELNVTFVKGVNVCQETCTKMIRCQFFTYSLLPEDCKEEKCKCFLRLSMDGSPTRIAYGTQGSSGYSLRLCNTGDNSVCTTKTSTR
How it was run: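 Buffer 20 mM Tris pH 7.5, EDTA, NaCl, PEG-400, Triton X-100; 300 uM Pro-Phe-Arg-AMC; enzyme–inhibitor preincubation 30 min RT. Format one: 500 pM kallikrein, 10 min RT reaction; format two: 5 pM kallikrein, 18 h RT reaction. Fluorescence read at 460 nm (380 nm excitation).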

Row | pEC50 | Compound
1 | 8.00 to 9.00 | O=C(NCc1ncn2ccc(Cl)cc12)c1cc(Cc2cn3cc(C4CC4)ccc3n2)on1 [Example I-176, N-((7-chloroimidazo[1,5-a]pyridin-1-yl)methyl)-5-((6-cyclopropylimidazo[1,2-a]pyridin-2-yl)methyl)isoxazole-3-carboxamide]
2 | 8.00 to 9.00 | O=C(NCc1ncn2ccc(Cl)cc12)c1noc(Cc2cn3cc(C4CC4)ccc3n2)n1 [Example I-177, N-((7-chloroimidazo[1,5-a]pyridin-1-yl)methyl)-5-((6-cyclopropylimidazo[1,2-a]pyridin-2-yl)methyl)-1,2,4-oxadiazole-3-carboxamide]
3 | 7.00 to 8.00 | O=C(NCc1ncn2ccc(Cl)c(F)c12)c1cn(Cc2nc3cc(C4CC4)ccn3n2)nn1 [Example I-178, N-((7-chloro-8-fluoroimidazo[1,5-a]pyridin-1-yl)methyl)-1-((7-cyclopropyl-[1,2,4]triazolo[1,5-a]pyridin-2-yl)methyl)-1H-1,2,3-triazole-4-carboxamide]
4 | > 9.00 | O=C(NCc1ncn2ccc(Cl)c(F)c12)c1cn(Cc2cn3cc(C4CC4)cc(-n4cnnn4)c3n2)nn1 [Example I-179, N-((7-chloro-8-fluoroimidazo[1,5-a]pyridin-1-yl)methyl)-1-((6-cyclopropyl-8-(1H-tetrazol-1-yl)imidazo[1,2-a]pyridin-2-yl)methyl)-1H-1,2,3-triazole-4-carboxamide]
5 | > 9.00 | O=C(NCc1ncn2ccc(Cl)c(F)c12)c1cn(Cc2cn3cc(C4CC4)cc(-n4cnnc4)c3n2)nn1 [Example I-180, N-((7-chloro-8-fluoroimidazo[1,5-a]pyridin-1-yl)methyl)-1-((6-cyclopropyl-8-(4H-1,2,4-triazol-4-yl)imidazo[1,2-a]pyridin-2-yl)methyl)-1H-1,2,3-triazole-4-carboxamide]
6 | > 9.00 | O=C(NCc1ncn2ccc(Cl)c(F)c12)c1cn(Cc2cn3cc(C4CC4)cc(CO)c3n2)nn1 [Example I-181, N-((7-chloro-8-fluoroimidazo[1,5-a]pyridin-1-yl)methyl)-1-((6-cyclopropyl-8-(hydroxymethyl)imidazo[1,2-a]pyridin-2-yl)methyl)-1H-1,2,3-triazole-4-carboxamide]
7 | > 9.00 | O=Cc1cc(C2CC2)cn2cc(Cn3cc(C(=O)NCc4ncn5ccc(Cl)c(F)c45)nn3)nc12 [Example I-182, N-((7-chloro-8-fluoroimidazo[1,5-a]pyridin-1-yl)methyl)-1-((6-cyclopropyl-8-formylimidazo[1,2-a]pyridin-2-yl)methyl)-1H-1,2,3-triazole-4-carboxamide]
8 | > 9.00 | NC(=O)CCc1cc(C2CC2)cn2cc(Cn3cc(C(=O)NCc4ncn5ccc(Cl)cc45)nn3)nc12 [Example I-183, 1-((8-(3-amino-3-oxopropyl)-6-cyclopropylimidazo[1,2-a]pyridin-2-yl)methyl)-N-((7-chloroimidazo[1,5-a]pyridin-1-yl)methyl)-1H-1,2,3-triazole-4-carboxamide]
9 | > 9.00 | N#CCCc1cc(C2CC2)cn2cc(Cn3cc(C(=O)NCc4ncn5ccc(Cl)cc45)nn3)nc12 [Example I-184, N-((7-chloroimidazo[1,5-a]pyridin-1-yl)methyl)-1-((8-(2-cyanoethyl)-6-cyclopropylimidazo[1,2-a]pyridin-2-yl)methyl)-1H-1,2,3-triazole-4-carboxamide]
10 | > 9.00 | O=C(NCc1ncn2ccc(Cl)c(F)c12)c1cn(Cc2cn3cc(C4CC4)cc(C(F)(F)F)c3n2)nn1 [Example I-185, N-((7-chloro-8-fluoroimidazo[1,5-a]pyridin-1-yl)methyl)-1-((6-cyclopropyl-8-(trifluoromethyl)imidazo[1,2-a]pyridin-2-yl)methyl)-1H-1,2,3-triazole-4-carboxamide]
11 | > 9.00 | O=C(NCc1ncn2ccc(Cl)c(F)c12)c1cn(Cc2cn3cc(C4CC4)cc(CC4COC4)c3n2)nn1 [Example I-186, N-((7-chloro-8-fluoroimidazo[1,5-a]pyridin-1-yl)methyl)-1-((6-cyclopropyl-8-(oxetan-3-ylmethyl)imidazo[1,2-a]pyridin-2-yl)methyl)-1H-1,2,3-triazole-4-carboxamide]
12 | > 9.00 | O=C(NCc1ncn2ccc(Cl)c(F)c12)c1cn(Cc2cn3cc(Cl)cc(C4COC4)c3n2)nn1 [Example I-187, 1-((6-chloro-8-(oxetan-3-yl)imidazo[1,2-a]pyridin-2-yl)methyl)-N-((7-chloro-8-fluoroimidazo[1,5-a]pyridin-1-yl)methyl)-1H-1,2,3-triazole-4-carboxamide]
13 | 8.00 to 9.00 | O=C(NCc1ncn2ccc(Cl)c(F)c12)c1cn(Cc2cn3cc(Cl)c(Cl)cc3n2)nn1 [Example I-188, N-((7-chloro-8-fluoroimidazo[1,5-a]pyridin-1-yl)methyl)-1-((6,7-dichloroimidazo[1,2-a]pyridin-2-yl)methyl)-1H-1,2,3-triazole-4-carboxamide]
14 | > 9.00 | O=C(NCc1ncn2ccc(Cl)c(F)c12)c1cn(Cc2cc3cc(C4CC4)cnc3s2)nn1 [Example I-189, N-((7-chloro-8-fluoroimidazo[1,5-a]pyridin-1-yl)methyl)-1-((5-cyclopropylthieno[2,3-b]pyridin-2-yl)methyl)-1H-1,2,3-triazole-4-carboxamide]
15 | > 9.00 | O=C(NCc1ncn2ccc(Cl)cc12)c1nc(Cc2cn3cc(C4CC4)ccc3n2)no1 [Example I-190, N-((7-chloroimidazo[1,5-a]pyridin-1-yl)methyl)-3-((6-cyclopropylimidazo[1,2-a]pyridin-2-yl)methyl)-1,2,4-oxadiazole-5-carboxamide]
16 | 8.00 to 9.00 | O=C(NCc1ncn2ccc(Cl)c(F)c12)c1cn(Cc2cc3cc(C4CC4)ccc3o2)nn1 [Example I-191, N-((7-chloro-8-fluoroimidazo[1,5-a]pyridin-1-yl)methyl)-1-((5-cyclopropylbenzofuran-2-yl)methyl)-1H-1,2,3-triazole-4-carboxamide]
17 | > 9.00 | O=C(NCc1ncn2ccc(Cl)c(F)c12)c1cn(Cc2cn3cc(C4CC4)cc(C(F)F)c3n2)nn1 [Example I-192, N-((7-chloro-8-fluoroimidazo[1,5-a]pyridin-1-yl)methyl)-1-((6-cyclopropyl-8-(difluoromethyl)imidazo[1,2-a]pyridin-2-yl)methyl)-1H-1,2,3-triazole-4-carboxamide]
18 | > 9.00 | O=C(O)c1cnn(Cc2cc(C3CC3)cn3cc(Cn4cc(C(=O)NCc5ncn6ccc(Cl)c(F)c56)nn4)nc23)c1 [Example I-193, 1-((2-((4-(((7-chloro-8-fluoroimidazo[1,5-a]pyridin-1-yl)methyl)carbamoyl)-1H-1,2,3-triazol-1-yl)methyl)-6-cyclopropylimidazo[1,2-a]pyridin-8-yl)methyl)-1H-pyrazole-4-carboxylic acid]
19 | > 9.00 | O=C(NCc1ncn2ccc(Cl)cc12)c1cn(Cc2cn3cc(C4CC4)cc(CCc4nnn[nH]4)c3n2)nn1 [Example I-194, 1-((8-(2-(1H-tetrazol-5-yl)ethyl)-6-cyclopropylimidazo[1,2-a]pyridin-2-yl)methyl)-N-((7-chloroimidazo[1,5-a]pyridin-1-yl)methyl)-1H-1,2,3-triazole-4-carboxamide]
20 | 5.70 to 7.00 | COC(=O)c1c(Cn2cc(C(=O)NCc3ncn4ccc(Cl)c(F)c34)nn2)[nH]c2cc(C3CC3)ccc12 [Example I-195, methyl 2-((4-(((7-chloro-8-fluoroimidazo[1,5-a]pyridin-1-yl)methyl)carbamoyl)-1H-1,2,3-triazol-1-yl)methyl)-6-cyclopropyl-1H-indole-3-carboxylate]
21 | 8.00 to 9.00 | O=C(NCc1ncn2ccc(Cl)c(F)c12)c1coc(Cc2cn3cc(C4CC4)ccc3n2)n1 [Example I-196, N-((7-chloro-8-fluoroimidazo[1,5-a]pyridin-1-yl)methyl)-2-((6-cyclopropylimidazo[1,2-a]pyridin-2-yl)methyl)oxazole-4-carboxamide]
22 | 5.70 to 7.00 | O=C(NCc1ncn2ccc(Cl)c(F)c12)c1cn(Cc2cc3ccc(Cl)cc3o2)nn1 [Example I-197, N-((7-chloro-8-fluoroimidazo[1,5-a]pyridin-1-yl)methyl)-1-((6-chlorobenzofuran-2-yl)methyl)-1H-1,2,3-triazole-4-carboxamide]
23 | > 9.00 | CC(c1cn2cc(C3CC3)ccc2n1)n1cc(C(=O)NCc2ncn3ccc(Cl)c(F)c23)nn1 (stereo not drawn) [Example I-198, N-((7-chloro-8-fluoroimidazo[1,5-a]pyridin-1-yl)methyl)-1-(1-(6-cyclopropylimidazo[1,2-a]pyridin-2-yl)ethyl)-1H-1,2,3-triazole-4-carboxamide]
24 | > 9.00 | O=C(NCc1ncn2ccc(Cl)c(F)c12)c1cn(Cc2cn3cc(C4CC4)cc(C4CCOC4=O)c3n2)nn1 (stereo not drawn) [Example I-199, N-((7-chloro-8-fluoroimidazo[1,5-a]pyridin-1-yl)methyl)-1-((6-cyclopropyl-8-(2-oxotetrahydrofuran-3-yl)imidazo[1,2-a]pyridin-2-yl)methyl)-1H-1,2,3-triazole-4-carboxamide]
25 | > 9.00 | O=C(NCc1ncn2ccc(Br)c(F)c12)c1cn(Cc2cn3cc(C4CC4)cc(F)c3n2)nn1 [Example I-200, N-((7-bromo-8-fluoroimidazo[1,5-a]pyridin-1-yl)methyl)-1-((6-cyclopropyl-8-fluoroimidazo[1,2-a]pyridin-2-yl)methyl)-1H-1,2,3-triazole-4-carboxamide]
26 | > 9.00 | O=C(NCc1ncn2ccc(Cl)c(F)c12)c1cn(Cc2cn3cc(C4CC4)cc(Cn4cccn4)c3n2)nn1 [Example I-201, 1-((8-((1H-pyrazol-1-yl)methyl)-6-cyclopropylimidazo[1,2-a]pyridin-2-yl)methyl)-N-((7-chloro-8-fluoroimidazo[1,5-a]pyridin-1-yl)methyl)-1H-1,2,3-triazole-4-carboxamide]

Row | Compound | pEC50
27 | O=C(NCc1ncn2ccc(Cl)c(F)c12)c1cn(Cc2cc3cc(C4CC4)ccn3n2)nn1 [Example I-175, N-((7-chloro-8-fluoroimidazo[1,5-a]pyridin-1-yl)methyl)-1-((5-cyclopropylpyrazolo[1,5-a]pyridin-2-yl)methyl)-1H-1,2,3-triazole-4-carboxamide] | > 9.00
